Reference: publication PMC7707621, “Oxidized Juncuenin B Analogues with Increased Antiproliferative Activity on Human Adherent Cell Lines: Semisynthesis and Biological Evaluation” (Journal of Natural Products, 2020)
“Also recorded” adds a separate entry of the source.

Assays:
[1] = tested on: SiHa cells; experiment: MTT antiproliferative assay on SiHa; format: cell-based, human; settings: for inhibition at 10 µM / inhibition at 30 µM / IC50: Homo sapiens, SiHa; for inhibition at 10 µM / inhibition at 30 µM: read-out: Growth inhibition (% ± SEM), SiHa; for IC50: MTT, 0.1–30 μM, 72 h, mean ± SEM, read-out: calculated IC50 values, SiHa
Procedure: (§1) The antiproliferative assays of the products were carried out by a standard MTT method on human breast (MCF-7, T47D), cervical (HeLa, SiHa, C33A), and ovarian (A2780) cancer cells, and NIH/3T3 mouse embryonic fibroblast cell lines. In the first step, the diastereomeric and racemic mixtures 1–11 and the starting compound, juncuenin B, were tested to obtain information about their antiproliferative activity.
(§2) The antiproliferative activity and tumor selectivity of the compounds were measured by standard MTT assays. Tumor cell lines MCF-7, T47D, HeLa, A2780, and noncancerous NIH/3T3 were provided by European Collection of Authenticated Cell Cultures (ECACC, Salisbury, UK); cell lines SiHa and C33A by LGC Standards GmbH (Wesel, Germany). All chemicals and materials used for the antiproliferative assays were purchased from Sigma Aldrich Ltd. (Budapest, Hungary).
(§3) Growth-inhibition properties of racemates and pure enantiomer compounds were determined by standard MTT assays on six human malignant gynecological cell lines (MCF-7, T47D, HeLa, SiHa, C33A, A2780). To investigate tumor selectivity, the MTT assay was repeated on mouse embryonic fibroblast cells (NIH/3T3) under the same conditions. All cell lines were maintained in minimal essential medium (MEM) supplemented with 10% fetal bovine serum, 1% nonessential amino acids, and 1% penicillin–streptomycin–amphotericin B mixture, and were stored in humidified air containing 5% CO2 at 37 °C. All cell types were seeded into 96–well plates at a density of 5000 with the exception of C33a, which was seeded at a density of 10 000 and treated by increasing concentrations (0.1–30 μM) of the compounds for 72 h under cell culturing conditions. After the incubation, 5 mg/mL MTT [3-(4,5-dimethylthiazol-2-yl)-2,5-diphenyltetrazolium bromide] solution was added to samples for 4 h and precipitated blue formazan crystals were dissolved in DMSO. Absorbance values of the samples were measured at 545 nm using a microplate reader (Stat Fax-2100, Awareness Technologies Inc., Palm City, FL, USA) and untreated cells were used as control. Normalized sigmoidal dose–response curves were fitted to the determined data and the IC50 values were calculated by GraphPad Prism 5.01 (GraphPad Software, San Diego, CA, USA). Cisplatin (Ebewe Pharma GmbH, Unterach, Austria) was used as a reference agent in the same concentration range.

[2] = tested on: C33A cells; experiment: MTT antiproliferative assay on C33A; format: cell-based, human; settings: for inhibition at 10 µM / inhibition at 30 µM: read-out: Growth inhibition (% ± SEM), C33a
Procedure: as §1, §2, §3

[3] = tested on: T47D cells; experiment: MTT antiproliferative assay on T47D; format: cell-based, human; settings: for inhibition at 10 µM / inhibition at 30 µM / IC50: Homo sapiens, T47D; for inhibition at 10 µM / inhibition at 30 µM: read-out: Growth inhibition (% ± SEM), T47d; for IC50: MTT, 0.1–30 μM, 72 h, mean ± SEM, read-out: calculated IC50 values, T47D
Procedure: as §1, §2, §3

[4] = tested on: MCF-7 cells; experiment: MTT antiproliferative assay on MCF-7; format: cell-based, human; settings: for inhibition at 10 µM / inhibition at 30 µM / IC50: Homo sapiens; for inhibition at 10 µM: MCF7, 10 μM; for inhibition at 10 µM / inhibition at 30 µM: read-out: Growth inhibition (% ± SEM), MCF-7; for inhibition at 30 µM: MCF7, 30 μM; for IC50: MCF7, MTT, 0.1–30 μM, 72 h, mean ± SEM, read-out: calculated IC50 values, MCF-7
Procedure: as §1, §2, §3

[5] = tested on: HeLa cells; experiment: MTT antiproliferative assay on HeLa; format: cell-based, human; settings: for inhibition at 10 µM / inhibition at 30 µM: read-out: Growth inhibition (% ± SEM), HeLa
Procedure: as §1, §2, §3

[6] = tested on: NIH/3T3 mouse embryonic fibroblast cells; experiment: MTT assay for tumor selectivity on NIH/3T3; format: cell-based; settings: for inhibition at 10 µM / inhibition at 30 µM: read-out: Growth inhibition (% ± SEM), NIH
Procedure: as §1, §2, §3

[7] = tested on: A2780 cells; experiment: MTT antiproliferative assay on A2780; format: cell-based, human; settings: for inhibition at 10 µM: A2780, 10 μM; for inhibition at 10 µM / inhibition at 30 µM: read-out: Growth inhibition (% ± SEM), A2780; for inhibition at 30 µM: A2780, 30 μM
Procedure: as §1, §2, §3

[8] = tested on: MCF-7, T47D, HeLa, SiHa, C33A, A2780 cells; experiment: MTT antiproliferative assay, panel of human gynecological cancer cell lines (result in words); format: cell-based
Procedure: as §1, §2, §3

| SMILES | inhibition at 10 µM ([1]; 10 μM) [%] | inhibition at 30 µM ([1]; 30 μM) [%] | IC50 [1] [µM] | inhibition at 10 µM ([2]; Homo sapiens, C-33-A, 10 μM) [%] | inhibition at 30 µM ([2]; Homo sapiens, C-33-A, 30 μM) [%] | inhibition at 10 µM ([3]; 10 μM) [%] | inhibition at 30 µM ([3]; 30 μM) [%] | inhibition at 10 µM [4] [%] | inhibition at 30 µM [4] [%] | inhibition at 10 µM ([5]; Homo sapiens, HeLa, 10 μM) [%] | inhibition at 30 µM ([5]; Homo sapiens, HeLa, 30 μM) [%] | inhibition at 10 µM ([6]; Mus musculus, NIH3T3) [%] | inhibition at 30 µM ([6]; Mus musculus, NIH3T3) [%] | inhibition at 10 µM ([7]; Homo sapiens) [%] | inhibition at 30 µM ([7]; Homo sapiens) [%] | antiproliferative activity (in words) [8] | further results |
| --- | --- | --- | --- | --- | --- | --- | --- | --- | --- | --- | --- | --- | --- | --- | --- | --- | --- |
| C=CC1=C(C)C(=O)C=C2C3=C(CC[C@]21OC)[C@](C)(OC)C(=O)C=C3 [Compound 1d, 2,6-dioxo-1,8a-dimethoxy-1,7-dimethyl-8-vinyl-9,10-dihydrophenanthrenes] | < 10 | 11.6 ± 2.33 | > 30 | 22.1 ± 1.44 | 89.4 ± 1 | < 10 | 41.8 ± 1.15 | < 10 | 34.6 ± 1.38 | 11.4 ± 2.71 | 25.1 ± 3.84 | < 10 | 30.7 ± 2.04 | 45.1 ± 2.08 | 92.39 ± 0.36 |  | IC50 ([2]; Homo sapiens, C-33-A, MTT, 0.1–30 μM, 72 h, mean ± SEM, read-out: calculated IC50 values, C33A): 13 ± 0.2 µM; IC50 [3]: > 30 µM; IC50 [4]: > 30 µM; IC50 ([5]; Homo sapiens, HeLa, MTT, 0.1–30 μM, 72 h, mean ± SEM, read-out: calculated IC50 values, HeLa): > 30 µM; IC50 ([6]; Mus musculus, NIH3T3, MTT, 0.1–30 μM, 72 h, mean ± SEM, read-out: calculated IC50 values, NIH/3T3): > 30 µM; IC50 ([7]; Homo sapiens, A2780, MTT, 0.1–30 μM, 72 h, mean ± SEM, read-out: calculated IC50 values, A2780): 11 ± 0.4 µM |
| C=CC1=C(C)C(=O)C=C2C3(OC)C=CC(=O)C(C)=C3CCC21OC (centres unmarked) [Compound 2a] | 15.4 ± 1.68 | 16.9 ± 2.31 |  | < 10 | 31.9 ± 3.75 | < 10 | 19.8 ± 0.61 | 40.3 ± 0.95 | 30.5 ± 1.82 | 32.3 ± 4.15 | 30 ± 0.74 |  |  | < 10 | 54.6 ± 3.67 | did not exert antiproliferative activity; also recorded: No significant activities |  |
| C=CC1=C(C)C(=O)C=C2C3(OC)C=CC(=O)C(C)=C3CCC21OC (centres unmarked) [Compound 2b] |  |  |  |  |  |  |  |  |  |  |  |  |  |  |  | did not exert antiproliferative activity; also recorded: No significant activities | Growth inhibition (% ± SEM), SiHa ([1]; 10 μM): 14.10±2.36%; Growth inhibition (% ± SEM), SiHa ([1]; 30 μM): 15.32±0.68%; Growth inhibition (% ± SEM), C33a ([2]; 10 μM): < 10%; Growth inhibition (% ± SEM), C33a ([2]; 30 μM): 23.25±2.82%; Growth inhibition (% ± SEM), T47d ([3]; 10 μM): 16.79±1.72%; Growth inhibition (% ± SEM), T47d ([3]; 30 μM): 25.66±2.53%; Growth inhibition (% ± SEM), MCF-7 ([4]; 10 μM): 27.86±1.80%; Growth inhibition (% ± SEM), MCF-7 ([4]; 30 μM): 46.79±1.23%; Growth inhibition (% ± SEM), HeLa ([5]; 10 μM): 16.35±1.56%; Growth inhibition (% ± SEM), HeLa ([5]; 30 μM): 38.33±1.22%; Growth inhibition (% ± SEM), A2780 ([7]; 10 μM): < 10%; Growth inhibition (% ± SEM), A2780 ([7]; 30 μM): 38.92±3.78% |
| C=Cc1c(C)c(O)c(OC)c2c3c(ccc12)C(C)(OC)C(=O)C=C3 (centres unmarked) [Compound 3] | < 10 | < 10 |  | < 10 | 14.2 ± 1.51 | < 10 | 15.5 ± 2.06 | 22.7 ± 0.57 | 21.4 ± 0.34 | < 10 | 15 ± 1.11 |  |  | < 10 | < 10 | did not exert antiproliferative activity; also recorded: No significant activities |  |
| C=CC1=C(C)C(=O)C=C2c3ccc(O)c(C)c3CC[C@@]21OC [Compound 4a] | < 10 | 26.3 ± 1.36 | > 30 | 58.41 ± 0.31 | 66.6 ± 0.74 | 37 ± 1.07 | 48.1 ± 1.47 | 61.5 ± 1.87 | 58.5 ± 0.86 | 88.1 ± 0.89 | 62.3 ± 2 | 19.2 ± 1.41 | 51.7 ± 1.68 | 44.5 ± 2.01 | 73.18 ± 0.4 |  | IC50 [3]: > 30 µM |
| C=CC1=C(C)C(=O)C=C2C3(OCC)C=CC(=O)C(C)=C3CCC21OCC (centres unmarked) [Compound 5] | < 10 | < 10 |  | < 10 | 10.3 ± 1.51 | < 10 | 14.1 ± 2.78 | < 10 | < 10 | < 10 | 14.4 ± 1.51 |  |  | < 10 | < 10 | did not exert antiproliferative activity; also recorded: No significant activities |  |
| C=CC1=C(C)C(=O)C=C2c3ccc(O)c(C)c3CC[C@@]21OCC [Compound 7a, 8a-ethoxy-1,7-dimethyl-6-oxo-8-vinyl-9,10-dihydrophenanthrene-2-ols] | 17 ± 1.88 | < 10 | > 30 | 73.18 ± 0.61 | 86.42 ± 0.5 | 57.4 ± 2.46 | 57 ± 1.24 | 41.7 ± 1.37 | 54.5 ± 1.33 | 71.1 ± 1.57 | 86.1 ± 1.29 | 23.3 ± 1.48 | 33.8 ± 1.74 | 82.1 ± 0.54 | 84.75 ± 0.4 |  | IC50 [4]: 20.6 ± 0.3 µM; activity against nontumoral NIH/3T3 cells (in words) ([6]; MTT): inactive |
| C=Cc1c(C)c(O)cc2c3c(ccc12)C(C)(OCC)C(=O)C=C3 (centres unmarked) [Compound 8] | < 10 | 16.7 ± 2.83 |  | < 10 | 21.3 ± 1.52 | < 10 | 14.1 ± 2.02 | 13 ± 0.63 | 23.9 ± 2.11 | < 10 | 22.2 ± 1.15 |  |  | < 10 | < 10 | did not exert antiproliferative activity; also recorded: No significant activities |  |
